Experiments:
SIK1 = SIK1 (Homo sapiens, UniProt P57059); assay: SelectScreen kinase profiling, LanthaScreen binding; conditions: SIK1, 10 µM
RET V804E = RET V804E (Homo sapiens, UniProt P07949, V804E); assay: SelectScreen kinase profiling, ZLYTE; type: biochemical
AURKB (Aurora B) = AURKB (Aurora B) (Homo sapiens, UniProt Q96GD4); assay: SelectScreen kinase profiling, ZLYTE; type: biochemical
ABL1 = ABL1 (Homo sapiens, UniProt P00519); assay: SelectScreen kinase profiling, ZLYTE; type: biochemical; conditions: ABL1, 10 µM
PIP5K1B = PIP5K1B (Homo sapiens, UniProt O14986); assay: SelectScreen kinase profiling, Adapta; type: biochemical
Chain of PIP5K1B (O14986 whole entry): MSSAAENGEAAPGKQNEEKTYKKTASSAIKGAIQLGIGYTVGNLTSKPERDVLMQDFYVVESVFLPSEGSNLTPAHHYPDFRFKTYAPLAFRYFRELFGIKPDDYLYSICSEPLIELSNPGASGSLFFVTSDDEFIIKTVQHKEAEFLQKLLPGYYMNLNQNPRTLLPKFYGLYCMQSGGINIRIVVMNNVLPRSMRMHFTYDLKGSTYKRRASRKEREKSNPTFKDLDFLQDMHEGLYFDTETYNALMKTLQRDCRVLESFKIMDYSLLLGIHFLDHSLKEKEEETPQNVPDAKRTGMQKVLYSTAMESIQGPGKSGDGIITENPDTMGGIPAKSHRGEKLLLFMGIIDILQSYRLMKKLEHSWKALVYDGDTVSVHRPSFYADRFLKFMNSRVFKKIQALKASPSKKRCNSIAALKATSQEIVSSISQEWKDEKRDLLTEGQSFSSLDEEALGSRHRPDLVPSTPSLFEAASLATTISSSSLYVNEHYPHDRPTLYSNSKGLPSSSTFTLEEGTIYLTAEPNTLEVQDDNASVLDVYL

Chain of AURKB (Aurora B) (Q96GD4 whole entry): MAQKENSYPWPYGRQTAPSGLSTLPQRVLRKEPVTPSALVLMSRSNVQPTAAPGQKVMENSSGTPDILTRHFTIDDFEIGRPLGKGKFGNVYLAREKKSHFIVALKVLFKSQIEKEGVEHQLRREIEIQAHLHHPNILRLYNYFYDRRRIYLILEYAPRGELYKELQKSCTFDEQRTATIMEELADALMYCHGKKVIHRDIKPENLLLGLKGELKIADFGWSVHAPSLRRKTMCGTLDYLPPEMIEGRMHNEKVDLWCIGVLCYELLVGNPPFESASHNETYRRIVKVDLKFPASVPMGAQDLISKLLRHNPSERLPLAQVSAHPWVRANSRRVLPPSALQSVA
Chain of RET V804E (P07949 29-1114 V804E): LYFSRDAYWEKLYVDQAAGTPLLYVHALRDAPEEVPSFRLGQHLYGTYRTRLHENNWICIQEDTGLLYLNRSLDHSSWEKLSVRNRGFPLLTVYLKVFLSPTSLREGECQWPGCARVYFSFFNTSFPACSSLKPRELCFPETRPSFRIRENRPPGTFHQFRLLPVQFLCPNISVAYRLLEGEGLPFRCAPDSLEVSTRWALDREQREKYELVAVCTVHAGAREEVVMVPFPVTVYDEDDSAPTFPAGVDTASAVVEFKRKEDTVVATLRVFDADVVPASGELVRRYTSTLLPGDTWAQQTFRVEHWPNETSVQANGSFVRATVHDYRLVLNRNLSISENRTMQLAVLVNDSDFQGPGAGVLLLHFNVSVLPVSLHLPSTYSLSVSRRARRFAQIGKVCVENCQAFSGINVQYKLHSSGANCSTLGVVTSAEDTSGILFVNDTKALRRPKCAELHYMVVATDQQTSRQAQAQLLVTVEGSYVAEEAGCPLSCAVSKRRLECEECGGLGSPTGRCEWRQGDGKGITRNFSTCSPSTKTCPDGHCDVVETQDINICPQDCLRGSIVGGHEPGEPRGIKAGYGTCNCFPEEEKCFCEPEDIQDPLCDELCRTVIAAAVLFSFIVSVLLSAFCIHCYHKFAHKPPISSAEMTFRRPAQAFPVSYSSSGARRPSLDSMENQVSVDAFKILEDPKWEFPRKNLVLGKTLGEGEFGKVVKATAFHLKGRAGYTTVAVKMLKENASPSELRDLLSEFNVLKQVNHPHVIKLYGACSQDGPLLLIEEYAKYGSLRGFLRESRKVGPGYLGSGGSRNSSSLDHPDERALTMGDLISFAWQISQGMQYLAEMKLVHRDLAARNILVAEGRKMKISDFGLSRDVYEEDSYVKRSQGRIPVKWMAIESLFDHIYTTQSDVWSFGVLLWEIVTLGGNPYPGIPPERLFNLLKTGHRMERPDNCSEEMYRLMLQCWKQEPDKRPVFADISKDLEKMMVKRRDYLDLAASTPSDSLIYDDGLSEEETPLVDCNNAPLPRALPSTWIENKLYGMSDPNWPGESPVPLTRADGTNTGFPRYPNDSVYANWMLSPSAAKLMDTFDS
Chain of SIK1 (P57059 whole entry): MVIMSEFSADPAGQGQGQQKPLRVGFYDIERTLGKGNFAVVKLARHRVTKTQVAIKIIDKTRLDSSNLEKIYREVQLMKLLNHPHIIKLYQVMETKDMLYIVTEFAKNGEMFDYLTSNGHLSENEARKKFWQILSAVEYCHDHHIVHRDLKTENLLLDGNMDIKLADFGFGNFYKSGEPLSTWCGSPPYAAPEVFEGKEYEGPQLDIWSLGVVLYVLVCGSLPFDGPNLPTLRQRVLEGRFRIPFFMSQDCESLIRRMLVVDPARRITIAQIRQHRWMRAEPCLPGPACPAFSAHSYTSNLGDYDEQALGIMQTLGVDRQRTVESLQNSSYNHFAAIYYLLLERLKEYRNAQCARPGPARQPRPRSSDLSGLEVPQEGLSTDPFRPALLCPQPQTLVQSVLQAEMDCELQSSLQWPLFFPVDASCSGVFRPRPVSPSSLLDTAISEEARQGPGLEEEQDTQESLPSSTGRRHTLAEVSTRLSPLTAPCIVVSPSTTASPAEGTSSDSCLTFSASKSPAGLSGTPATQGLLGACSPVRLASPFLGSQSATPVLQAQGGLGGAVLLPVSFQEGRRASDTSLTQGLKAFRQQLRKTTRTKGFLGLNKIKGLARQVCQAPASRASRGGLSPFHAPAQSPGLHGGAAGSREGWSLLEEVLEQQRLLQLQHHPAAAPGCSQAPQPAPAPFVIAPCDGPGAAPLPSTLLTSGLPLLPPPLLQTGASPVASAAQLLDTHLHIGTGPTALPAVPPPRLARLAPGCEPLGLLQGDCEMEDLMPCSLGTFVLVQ
Chain of ABL1 (P00519 whole entry): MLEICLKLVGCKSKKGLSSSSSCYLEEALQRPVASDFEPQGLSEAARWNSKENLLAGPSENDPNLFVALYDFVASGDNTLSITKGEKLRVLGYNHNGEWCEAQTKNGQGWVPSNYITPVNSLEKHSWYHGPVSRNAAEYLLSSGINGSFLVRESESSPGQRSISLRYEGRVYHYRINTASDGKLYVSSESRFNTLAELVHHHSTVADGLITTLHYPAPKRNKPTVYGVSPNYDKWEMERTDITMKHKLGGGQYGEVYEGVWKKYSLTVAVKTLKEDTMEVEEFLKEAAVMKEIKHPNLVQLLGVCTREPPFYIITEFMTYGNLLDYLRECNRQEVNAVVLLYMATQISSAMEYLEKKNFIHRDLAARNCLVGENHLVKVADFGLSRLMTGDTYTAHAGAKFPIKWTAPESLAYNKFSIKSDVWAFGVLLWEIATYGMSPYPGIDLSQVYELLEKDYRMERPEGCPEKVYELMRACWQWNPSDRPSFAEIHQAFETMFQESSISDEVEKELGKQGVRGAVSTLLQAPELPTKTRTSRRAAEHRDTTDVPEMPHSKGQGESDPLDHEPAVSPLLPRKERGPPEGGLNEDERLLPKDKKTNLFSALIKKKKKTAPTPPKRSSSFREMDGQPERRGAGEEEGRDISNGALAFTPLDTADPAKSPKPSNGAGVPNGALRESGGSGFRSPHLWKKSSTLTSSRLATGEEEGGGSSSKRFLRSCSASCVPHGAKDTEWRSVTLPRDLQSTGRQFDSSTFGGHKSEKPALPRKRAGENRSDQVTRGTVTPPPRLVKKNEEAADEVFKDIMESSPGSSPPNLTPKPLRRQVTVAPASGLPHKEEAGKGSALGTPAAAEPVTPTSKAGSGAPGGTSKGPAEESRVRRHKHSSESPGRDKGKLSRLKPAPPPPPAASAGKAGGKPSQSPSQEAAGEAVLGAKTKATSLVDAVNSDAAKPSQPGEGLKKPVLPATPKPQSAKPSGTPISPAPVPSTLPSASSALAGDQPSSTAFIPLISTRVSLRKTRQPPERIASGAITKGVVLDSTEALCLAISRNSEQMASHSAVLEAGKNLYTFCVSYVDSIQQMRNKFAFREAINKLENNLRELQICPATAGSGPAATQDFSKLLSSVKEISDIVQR

Question: What does the source list for `O=C(c1ccc(/C=C/c2n[nH]c3ccccc23)cc1)N1CCNCC1` [KW-2449]?
Answer: inhibition at 10 µM (SIK1): 82%; inhibition at 10 µM (RET V804E): 94%; inhibition at 10 µM (AURKB (Aurora B)): 102%; inhibition at 10 µM (ABL1): 100%; inhibition at 10 µM (PIP5K1B): 32%

Reference: paper PMC6540285, “Evaluation of Protein Kinase Inhibitors with PLK4 Cross-Over Potential in a Pre-Clinical Model of Cancer” (International Journal of Molecular Sciences, 2019)
